According to US10919902B2, “Hetero-halo inhibitors of histone deacetylase” (Alkermes, Inc., priority 2015, dated 2021):

Assays:
[1] = target: recombinant human HDACs (Homo sapiens); assay: HDAC enzymatic assay; format: biochemical; conditions: 5 nM HDAC enzyme, 5 h pre-incubation, 17 h reaction at 25° C.; isoform not given; read-out: IC50
Method: All recombinant human HDACs were purchased from BPS Bioscience. The substrate, FAM-TSRHK(AC)KL-CONH, was synthesized at NanoSyn. Final assay reactions contained 100 mM HEPES (pH 7.5), 50 mM KCl, 0.1% BSA, 0.01% Triton X-100, 1% DMSO, 1 uM substrate and 5 nM HDAC enzyme. Enzyme and compounds were pre-incubated at 25° C. for 5 hours and reactions were initiated by addition of substrate. 10 uL reactions were incubated for 17 hours at 25° C. and terminated by the addition of 40 uL of buffer containing 100 mM HEPES (pH 7.5), 0.1% BSA, 0.01% Triton X-100 and 0.05% SDS. Substrate and product peptides present in each sample were separated electrophoretically using the LabChip 3000 capillary electrophoresis instrument. Change in the relative fluorescence intensity of the substrate and product peaks reflects enzyme activity. Reaction progress was determined as the product to sum ratio (PSR):P/(S+P), where P is the peak height of the product peptide and S is the peak height of the substrate peptide. Reactions were performed in duplicate at 12 concentrations, (3× serial dilutions starting at 30 uM). IC50 values were calculated using a 4 Parameter Logistic Model.

SH-SY5Y cells = assay: Cell assay: SH-SY5Y cells, HDAC-Glo 2 reagent; format: cell-based; conditions: Homo sapiens, 5 h incubation, CI-994 at 100 uM = 100% inhibition
Method: SH-SY5Y cells (Sigma) were cultured in Eagle's Modified Essential Medium supplemented with 10% fetal bovine serum and pen/strep. Twenty-four hours prior to compound dosing 20 uL of cells were plated in white 384 well plates at a density of 1,500 cells/well. Compounds were serially diluted in neat DMSO and then diluted 1:100 v/v into media without FBS and mixed. Media was removed from the plated cells and the diluted compounds in serum free media (1% v/v final DMSO) were added and incubated at 37° C. for five hours. Ten uL of HDAC-Glo 2 reagent with 0.1% Triton X-100 was then added, the plate was mixed and allowed to develop at room temperature for 100 minutes. Plates were then read with a Spectramax LMax luminometer employing a 0.4 s integration time. Dose response curves were constructed with normalized data where CI-994 at 100 uM was defined as 100% inhibition and DMSO alone as 0% inhibition.

IC50 [1] [nM]	EC50 (SH-SY5Y cells) [nM]	Compound
500 to 5000	500 to 5000	CN1CCC(N2C[C@@H]3C(C(=O)Nc4nc(-c5ccc(F)cc5)ccc4N)[C@@H]3C2)CC1 (some centres unmarked) [Compound 263]
500 to 5000		CN1CCC(c2ccc3c(c2)CN(C(=O)Nc2nc(-c4ccc(F)cc4)ccc2N)C3)CC1 [Compound 387]
500 to 5000		COC1CCN(C(=O)Nc2nc(-c3ccc(F)cc3)ccc2N)C1 (centres unmarked) [Compound 388]
> 5000		COCC1CCN(C(=O)Nc2nc(-c3ccc(F)cc3)ccc2N)C1 (centres unmarked) [Compound 389]
500 to 5000		Nc1ccc(-c2ccc(F)cc2)nc1NC(=O)N1CCC(C(F)(F)F)C1 (centres unmarked) [Compound 390]
500 to 5000		Nc1ccc(-c2ccc(F)cc2)nc1NC(=O)N1CC2COCC2C1 (centres unmarked) [Compound 392]
100 to 500		CC(O)c1ccc2c(c1)CN(C(=O)Nc1nc(-c3ccc(F)cc3)ccc1N)C2 (centres unmarked) [Compound 394]
100 to 500		COCc1ccc2c(c1)CN(C(=O)Nc1nc(-c3ccc(F)cc3)ccc1N)C2 [Compound 396]
100 to 500		Nc1ccc(-c2ccc(F)cc2)nc1NC(=O)N1Cc2cccnc2C1 [Compound 397]
> 5000		Nc1ccc(-c2ccc(F)cc2)nc1NC(=O)N1CC2CCC(C1)O2 [Compound 406]

The remaining lines, values behind:

Compound	IC50 [1] [nM]	EC50 (SH-SY5Y cells) [nM]
CN1CCN(c2ccc3c(n2)CN(C(=O)Nc2nc(-c4ccc(F)cc4)ccc2N)C3)CC1 [Compound 391]	100 to 500	
COCc1ccc2c(c1)CN(C(=O)Nc1nc(-c3cccnc3)ccc1N)C2 [Compound 393]	500 to 5000	
Nc1ccc(-c2cccnc2)nc1NC(=O)N1Cc2ccc(CO)cc2C1 [Compound 395]	> 5000	
CN(C)Cc1ccc2c(c1)CN(C(=O)Nc1nc(-c3ccc(Cl)s3)ccc1N)C2 [Compound 401]	> 5000	
Nc1ccc(-c2ccc(F)cc2)nc1NC(=O)N1Cc2ccc(CN3CCCC3)cc2C1 [Compound 405]	100 to 500	
Nc1cn(-c2ccccc2)nc1NC(=O)N1CCC2(CCOCC2)C1 [Compound 407]	> 5000	
Nc1ccc(-c2ccc(F)cc2)nc1NC(=O)N1Cc2ccc(CN3CCC(C(F)(F)F)C3)cc2C1 (centres unmarked) [Compound 408]	100 to 500	
CN(C)Cc1ccc2c(c1)CN(C(=O)Nc1nc(-c3cccs3)ccc1N)C2 [Compound 409]	100 to 500	
Nc1ccc(-c2cccs2)nc1NC(=O)N1Cc2ccc(CN3CCCC3)cc2C1 [Compound 410]	100 to 500	
